Bounds are passed on as bounds.

The test system of one test is DU145 (prostate cancer). The experiment in a line: Effect of compounds on tumor cell lines (assay of Latham et al.), DU145. In kind it is cell-based. The note with it: Table 1; DU145 cells, examined 96 hours after treatment, 1 μM to 100 μM in DMSO; read-out: DU 145 potency (IC50). How it is done: (§1) The effect of the compounds of the invention on tumor cells was determined by the assay described by Latham et al., Oncogene 12:827-837 (1996). Tumor cells K562 (chronic myelogenous leukaemia) or DU145 (prostate cancer) were plated in 12-well dishes at a cell density of 2.5×10^4 cells well. The plated cells were treated 24 hours later with a compound of the invention dissolved in DMSO at multiple concentrations ranging from 1 μM to 100 μM. The plates were examined 96 hours later under an inverted microscope, Olympus CK-2 using an 10× objective, and compound activity was noted by physical observation. When necessary, the total number of viable cells was determined by trypsinizing the wells and counting the number of viable cells, as determined by trypan blue exclusion, using a hemacytometer.
(§2) The representative compounds listed in Tables 1-5 are shown by way of illustration, and are not intended to limit the scope of the invention. The compounds are prepared and tested by methods based on those described above, except that the compound of Table 5 was dissolved in DMSO at multiple concentrations ranging from 0.1 μM to 100 μM

Test [1] relates to K562 (chronic myelogenous leukaemia). The experiment in a line: Effect of compounds on tumor cell lines (assay of Latham et al.), K562. The class given is cell-based. Particulars: Table 1; K562 cells, examined 96 hours after treatment, 1 μM to 100 μM in DMSO; read-out: K 562 potency (IC50). The method, then: as §1, §2

In the case of `O=C(C(=Cc1ccccc1F)Sc1ccc(Br)cc1)c1ccc(Cl)cc1` [Example 24], the values for the IC50 (with DU145 (prostate cancer); in test [1]) were 10 to 25 µM and 1 to 10 µM, respectively.
As to `COc1ccccc1C=C(Sc1ccc(Br)cc1)C(=O)c1ccc(Cl)cc1` [Example 25], the IC50 (with DU145 (prostate cancer); in test [1]) was 10 to 25 µM each time.
`Cc1cc(C)cc(C=C(Sc2ccc(Br)cc2)C(=O)c2ccc(Cl)cc2)c1` [Example 26]: the IC50 was 10 to 25 µM in the test on DU145 (prostate cancer) and 1 to 10 µM in test [1].
As for `O=C(C(=Cc1ccc(O)c(Br)c1)Sc1ccc(Br)cc1)c1c(F)c(F)c(F)c(F)c1F` [Example 27], the IC50 (in the test on DU145 (prostate cancer); in test [1]) was 1 to 10 µM throughout.
In the case of `O=C(O)c1cc(C=C(Sc2ccc(Br)cc2)C(=O)c2c(F)c(F)c(F)c(F)c2F)ccc1O` [Example 28], the IC50 (with DU145 (prostate cancer); in test [1]) was 25 to 50 µM each time.
Turning to `O=C(C(=Cc1ccc([N+](=O)[O-])c(O)c1)Sc1ccc(Br)cc1)c1c(F)c(F)c(F)c(F)c1F` [Example 30], the IC50 (with DU145 (prostate cancer); in test [1]) was 1 to 10 µM each time.
For `O=C(C(=Cc1c[nH]c2ccccc12)Sc1ccc(Br)cc1)c1ccc(Br)cc1` [Example 31], the IC50 (in the test on DU145 (prostate cancer); in test [1]) was 1 to 10 µM in each case.
As for `O=C(C(=Cc1ccc(Br)c(O)c1)Sc1ccc(Br)cc1)c1ccc(Br)cc1` [Example 32], the IC50 (in the test on DU145 (prostate cancer); in test [1]) was 1 to 10 µM throughout.
Consider `O=C(C(=Cc1ccc(Br)c([N+](=O)[O-])c1)Sc1ccc(Br)cc1)c1ccc(Br)cc1` [Example 34], for which the IC50 (in the test on DU145 (prostate cancer); in test [1]) was 1 to 10 µM each time.
On to `O=C(C(=Cc1ccc(Br)cc1)Sc1ccc(Br)cc1)c1ccc(Br)cc1` [Example 35], for which the IC50 (in the test with DU145 (prostate cancer); in test [1]) was 1 to 10 µM throughout.
Consider `O=C(C(=Cc1ccc(Br)cc1)Sc1ccc(Br)cc1)c1ccc(Cl)cc1` [Example 36], for which the IC50 (with DU145 (prostate cancer); in test [1]) was 1 to 10 µM each time.
Turning to `O=C(C(=Cc1ccc(Cl)c([N+](=O)[O-])c1)Sc1ccc(Br)cc1)c1ccc(Br)cc1` [Example 37], the IC50 (with DU145 (prostate cancer); in test [1]) was 1 to 10 µM each time.
For the compound `O=C(C(=Cc1ccc(Cl)cc1)Sc1ccc(Br)cc1)c1ccc(Br)cc1` [Example 38], the IC50 (with DU145 (prostate cancer); in test [1]) was 1 to 10 µM in each case.
As for `COc1cc(C=C(Sc2ccc(Br)cc2)C(=O)c2ccc(Br)cc2)ccc1F` [Example 39], the IC50 (with DU145 (prostate cancer); in test [1]) was 1 to 10 µM throughout.
As for `O=C(C(=Cc1ccc(F)cc1)Sc1ccc(Br)cc1)c1ccc(Br)cc1` [Example 40], the values for the IC50 (in the test on DU145 (prostate cancer); in test [1]) were 10 to 25 µM and 1 to 10 µM, respectively.
In the case of `COc1cc(C=C(Sc2ccc(Br)cc2)C(=O)c2ccc(Br)cc2)ccc1O` [Example 41], the IC50 (in the test with DU145 (prostate cancer); in test [1]) was 1 to 10 µM each time.
With `O=C(C(=Cc1ccc(O)c([N+](=O)[O-])c1)Sc1ccc(Br)cc1)c1c(F)c(F)c(F)c(F)c1F` [Example 42], the IC50 (with DU145 (prostate cancer); in test [1]) was 1 to 10 µM throughout.
Regarding `O=C(C(=Cc1ccc(O)c([N+](=O)[O-])c1)Sc1ccc(Br)cc1)c1ccc(Br)cc1` [Example 43], the IC50 (in the test on DU145 (prostate cancer); in test [1]) was 1 to 10 µM in each case.
Consider `CSc1ccc(C=C(Sc2ccc(Br)cc2)C(=O)c2ccc(Cl)cc2)cc1` [Example 46], for which the half-maximal inhibitory concentration (IC50) (in the test with DU145 (prostate cancer); in test [1]) was 1 to 10 µM each time.
On to `COc1ccc(C=C(Sc2ccc(Br)cc2)C(=O)c2ccc(Br)cc2)cc1` [Example 47], for which the figures for the IC50 (in the test on DU145 (prostate cancer); in test [1]) were 25 to 50 µM and 1 to 10 µM, respectively.
For `COc1ccc(C=C(Sc2ccc(Br)cc2)C(=O)c2ccc(Cl)cc2)cc1` [Example 48], the IC50 with DU145 (prostate cancer) was 50 to 100 µM; in test [1], 1 to 10 µM.
For `CN(C)c1ccc(C=C(Sc2ccc(Br)cc2)C(=O)c2ccc(Cl)cc2)cc1` [Example 49], the 50% inhibitory concentration (IC50) (in the test on DU145 (prostate cancer); in test [1]) was over 100 µM each time.
Take `O=C(C(=Cc1ccc(Oc2ccccc2)cc1)Sc1ccc(Br)cc1)c1ccc(Br)cc1` [Example 50]: the IC50 (with DU145 (prostate cancer); in test [1]) was 50 to 100 µM throughout.
`O=C(C(=Cc1ccc(OC(F)(F)F)cc1)Sc1ccc(Br)cc1)c1ccc(Br)cc1` [Example 51]: the IC50 (in the test on DU145 (prostate cancer); in test [1]) was 1 to 10 µM in each case.
Regarding `COc1ccc2[nH]cc(C=C(Sc3ccc(Br)cc3)C(=O)c3ccc(Br)cc3)c2c1` [Example 52], the half-maximal inhibitory concentration (IC50) (in the test with DU145 (prostate cancer); in test [1]) was 1 to 10 µM each time.
For the compound `O=C(C(=Cc1ccc(Cl)cc1)Sc1ccc(Cl)cc1)c1ccc(Cl)cc1` [Example 53], the IC50 (with DU145 (prostate cancer); in test [1]) was 1 to 10 µM each time.
For `COc1ccc(C(=O)C(=Cc2c(OC)cc(OC)cc2OC)Sc2ccc(F)cc2)cc1` [Example 54], the IC50 (in the test on DU145 (prostate cancer); in test [1]) was 50 to 100 µM throughout.
On to `O=C(C(=Cc1ccccc1OCc1ccccc1)Sc1ccc(F)cc1)c1ccc(Cl)cc1` [Example 55], for which the IC50 (in the test with DU145 (prostate cancer); in test [1]) was 1 to 10 µM each time.
Take `COc1ccc(C(=O)C(=Cc2ccc(OC)c(O)c2)Sc2ccc(F)cc2)cc1` [Example 56]: the IC50 was 10 to 25 µM with DU145 (prostate cancer) and 1 to 10 µM in test [1].
Consider `COc1ccc(C(=O)C(=Cc2ccc(Br)cc2)Sc2ccc(F)cc2)cc1` [Example 57], for which the IC50 (in the test with DU145 (prostate cancer); in test [1]) was over 100 µM each time.
As to `COc1ccc(C(=O)C(=Cc2ccc(Cl)cc2)Sc2ccc(F)cc2)cc1` [Example 58], the IC50 (with DU145 (prostate cancer); in test [1]) was over 100 µM throughout.
For `COc1ccc(C=C(Sc2ccc(F)cc2)C(=O)c2ccc(OC)cc2)cc1` [Example 59], the IC50 in the test with DU145 (prostate cancer) is 25 to 50 µM; in test [1] it was 1 to 10 µM.
For `Cc1ccc(C=C(Sc2ccc(F)cc2)C(=O)c2ccc(Cl)cc2)s1` [Example 60], the IC50 (in the test on DU145 (prostate cancer); in test [1]) was 25 to 50 µM each time.
For the compound `COc1ccc(SC(=Cc2ccc(Cl)cc2Cl)C(=O)c2ccc(Br)cc2)cc1` [Example 61], the IC50 (with DU145 (prostate cancer); in test [1]) was 1 to 10 µM in each case.
For the compound `COc1ccc(SC(=Cc2ccccc2OCc2ccccc2)C(=O)c2ccc(Cl)cc2)cc1` [Example 62], the IC50 (with DU145 (prostate cancer); in test [1]) was 1 to 10 µM in each case.
On to `COc1ccc(SC(=Cc2ccc(Br)cc2)C(=O)c2ccc(Br)cc2)cc1` [Example 63], for which the values for the IC50 (in the test with DU145 (prostate cancer); in test [1]) were 25 to 50 µM and 1 to 10 µM, respectively.
Turning to `COc1ccc(SC(=Cc2ccc(C)s2)C(=O)c2ccc(Cl)cc2)cc1` [Example 64], the IC50 (in the test with DU145 (prostate cancer); in test [1]) was 50 to 100 µM in each case.
Consider `Cc1ccc(SC(=Cc2c(F)c(F)c(F)c(F)c2F)C(=O)c2ccc(Cl)cc2)cc1` [Example 65], for which the half-maximal inhibitory concentration (IC50) (with DU145 (prostate cancer); in test [1]) was 25 to 50 µM throughout.
In the case of `Cc1ccc(SC(=Cc2c(O)cc(O)cc2O)C(=O)c2ccc(Br)cc2)cc1` [Example 67], the IC50 in the test with DU145 (prostate cancer) was over 100 µM; in test [1], 50 to 100 µM.
For `Cc1ccc(SC(=Cc2c(O)cc(O)cc2O)C(=O)c2ccc(Cl)cc2)cc1` [Example 68], the IC50 (in the test with DU145 (prostate cancer); in test [1]) was over 100 µM throughout.
With `COc1cc(OC)c(C=C(Sc2ccc(C)cc2)C(=O)c2ccc(Cl)cc2)c(OC)c1` [Example 70], the results for the IC50 (with DU145 (prostate cancer); in test [1]) were over 100 µM and 25 to 50 µM, respectively.
In the same order, the values of `Cc1ccc(SC(=Cc2ccc(Cl)cc2Cl)C(=O)c2ccc(Cl)cc2)cc1` [Example 71] are 10 to 25 µM and 25 to 50 µM.
In the same order, the values of `Cc1ccc(SC(=Cc2ccc(F)cc2F)C(=O)c2ccc(Br)cc2)cc1` [Example 73] are over 100 µM and over 100 µM.

Source of the values: US8808702B2, “Sulfide, sulfoxide and sulfone chalcone analogues, derivatives thereof and therapeutic uses thereof” (Temple University-of the Commonwealth System of Higher …, priority 2006, dated 2014).
